Experiment [1] in a line: Retrospective chart review of cardiac events in prostate cancer patients on LHRH inhibitors vs controls. In kind it is in vivo. As to conditions: treated patients vs controls. On the procedure:
The patients on either Leuprolide or Goserelin were treated with the recommended doses indicated for the treatment of prostatic carcinoma, at either one or three month intervals depending on the preparation used. Leuprolide was dosed at 7.5 mg monthly (single intramuscular injection) or at 22.5 mg at 3 month intervals (single intramuscular injection). Goserelin was dosed at 3.6 mg monthly or at a dose of 10.8 mg at 3 month intervals (subcutaneous injection). The various groups of office patients were evaluated by chart review. In groups 2 and 3 only those on drug for at least one year were considered. Cardiac event is defined either the history of a heart attack or occurrence of coronary artery bypass or angioplasty. In control groups only events occurring in the 3 years prior to the questionnaire are charted.

Experiment [2] is described as follows: Second study: patient questionnaire, cardiac events in patients taking finasteride. In kind it is in vivo. As to conditions: 4 events over 242 patient-years; control 3.5%/yr. On the procedure: Finasteride was being administered at a dosage of a single oral 5 mg tablet a day. This is the same tablet used in treatment of BPH as disclosed in U.S. Pat. No. 5,175,155 and such dosage applies in the present invention. However, use of a 2 mg or 10 mg oral tablet is contemplated. In the second study patients of the practice were given a questionnaire. Various patients had been treated with finasteride for varying lengths of time. Only those on the drug for at least one year were considered. The average time on finasteride was 3 years. The number of cardiac events occurring in the patients taking finasteride was only 4 events over 242 patient-years. (1.6%/yr.) In the control group 26 events occurred in the 3 years prior over 732 patient-years. (3.5%/yr.) The 45% decrease observed in cardiac events is believed to be significant. (90% Cl equal to 1.4% to 3.7%)

Regarding `CC(=O)O.CCNC(=O)[C@@H]1CCCN1C(=O)[C@H](CCCNC(=N)N)NC(=O)[C@H](CC(C)C)NC(=O)[C@@H](CC(C)C)NC(=O)[C@H](Cc1ccc(O)cc1)NC(=O)[C@H](CO)NC(=O)[C@H](Cc1c[nH]c2ccccc12)NC(=O)[C@H](Cc1c[nH]cn1)NC(=O)[C@@H]1CCC(=O)N1` [Lupron, 5-oxo-L-prolyl-L-histidyl-L-tryptophyl-L-seryl-L-tyrosyl-D-leucyl-L-leucyl-L-arginyl-N-ethyl-L-prolinamide acetate salt], the “heart attacks compared with controls” value in experiment [1] is given as “fewer heart attacks than controls”.
Consider `CC(C)C[C@H](NC(=O)[C@@H](COC(C)(C)C)NC(=O)[C@H](Cc1ccc(O)cc1)NC(=O)[C@H](CO)NC(=O)[C@H](Cc1c[nH]c2ccccc12)NC(=O)[C@H](Cc1cnc[nH]1)NC(=O)[C@@H]1CCC(=O)N1)C(=O)N[C@@H](CCCNC(=N)N)C(=O)N1CCC[C@H]1C(=O)NNC(N)=O` [Zoladex, pyro-Glu-His-Trp-Ser-Tyr-D-Ser(Bu^t)-Leu-Arg-Pro-Azgly-NH2 acetate], for which the “heart attacks compared with controls” value in experiment [1] is “fewer heart attacks than controls”.
The compound `CC(C)(C)NC(=O)[C@H]1CC[C@H]2[C@@H]3CC[C@H]4NC(=O)C=C[C@]4(C)[C@H]3CC[C@]12C` [finasteride, 4-azaandrost-1-ene-17-carboxamide, N-(1,1-dimethylethyl)-3-oxo-(5a 17B)-] had a cardiac event rate in experiment [2] of 1.6 %/yr.

The record behind these values is patent US6627227B2, “Use of saw palmetto to prevent atherosclerosis” (priority 2000, dated 2003).
